From patent US6878689B2, “Preventives or remedies for heart failure” (Kaken Pharmaceutical Co., Ltd., priority 2000, dated 2005)
Where a SMILES comes first, the peptide text is derived from it. [ ]: non-standard residue; d: D form. d2Nal = N[C@H](Cc1ccc2ccccc2c1)C(=O)O

Test system: dogs with occluded anterior descending coronary artery
Test: Effect of intravenously administered pralmorelin on cardiac function of dog with anterior descending coronary artery occlusion
Type: in vivo
Settings: 100 μg/kg i.v.
Description: [Test Example 3] Effect of Intravenously Administered Pralmorelin on the Cardiac Function of Dog with a Model of Anterior Descending Coronary Artery Occlusion
Using a dog model of acute contractile dysfunction caused by occlusion of the anterior descending coronary artery, the inventors studied the cardiotonic action of pralmorelin.
The action of pralmorelin on the cardiac dysfunction deteriorated by occlusion of the coronary artery was evaluated by various hemodynamic parameters, cardiac output (CO), stroke volume (SV), maximal positive dP/dt of left ventricular pressure (+dP/dtmax), ejection fraction (EF), mean blood pressure (MBP), heart rate (HR), total peripheral resistance (TPR) and double product (RPP) as an index of myocardial oxygen consumption. • 1. Test Materials and Method • 1) Test Substance and Reagents • (1) Control
Pralmorelin dihydrochloride (hereunder referred to as KP-102) (prepared by the method described in WO 9304081) was dissolved in distilled water to prepare a 0.5 mg/mL solution. • (3) Reagents
In the experiment, adult beagles of either sex (weighing 9-11 kg) purchased from Nihon Nosan Kogyo K.K. (Kanagawa, Japan) were used. After arrival, the animals were allowed to eat a solid meal (CD-5, CLEA Japan, Inc. or Labo D Stock, Nark Corp.) and drink water in a room at a temperature of 20±2° C. and at a humidity of 55±15% under illumination for 12 hours a day (from 7:00 to 19:00); the animals were kept under these conditions for at least one week before use. • 3) Method of Measurement
Anesthesia was introduced by intravenous administration of pentobarbital (30 mg/kg) and in order to maintain anesthesia, pentobarbital (5-6 mg/kg/hr) was injected continuously by means of an infusion pump (FP-W-100, Toyo Sangyo) through a polyethylene cannula retained in the right cephalic vein. The endotracheal cannula was inserted and the chest was opened at the left fourth intercostal space under artificial respiration in a tidal volume of 20 mL/kg at a rate of 18 breaths/min with an artificial respirator (SN-480-3 of Shinano Seisakusho). The left anterior descending coronary artery was carefully detached from the site of origin over a length of 1-2 cm and an occluding thread was passed through.
The chest was opened at the left fifth intercostal space and a 5-segment conductance catheter (CCS-108-DA, Unique Medical) was inserted from the cardiac apex so that all electrodes would be placed in the left ventricle. A catheter equipped with a 5 Fr microtip pressure transducer (pressure transducer catheter, Model MPC-500, MILLAR) was inserted into the left ventricle through the left carotid artery. The conductance catheter and the pressure transducer catheter inserted into the left ventricle were connected to a built-in amplifier in a ventricular volume-measuring instrument (Integral 3; VPR-1002, Unique Medical) and the changes in the left ventricular pressure (LVP) and the volume of the left ventricle were measured simultaneously. To determine the mean blood pressure (MBP), blood pressure was measured via a blood pressure amplifier (AP641G, Nihon Kohden) from the 5 Fr pressure transducer catheter inserted into the left femoral artery. Heart rate (HR) was measured with a cardiotachometer (AT-601G, Nihon Kohden) from the pulse waves of blood pressure.
The chest was opened again at the fourth intercostal space and in order to measure the cardiac output (CO(EMF)) (CO as determined by an electromagnetic blood flowmeter based method), a probe connected to an electromagnetic blood flowmeter (MFV-2100, Nihon Kohden) was fitted at the site of origin of the aorta. A spiral electrode was put in the ischemic region that occurred due to the occlusion of coronary artery and a surface electrocardiogram was recorded. A Doppler probe was fitted on the left anterior descending coronary artery and the blood flow was determined with a Doppler blood flowmeter (PD-20, Crystal Biotech). […]

C[C@H](NC(=O)[C@@H](Cc1ccc2ccccc2c1)NC(=O)[C@@H](C)N)C(=O)N[C@@H](Cc1c[nH]c2ccccc12)C(=O)N[C@H](Cc1ccccc1)C(=O)N[C@@H](CCCCN)C(N)=O [KP-102, D-alanyl-3-(naphthalen-2-yl)-D-alanyl-L-alanyl-L-tryptophyl-D-phenylalanyl-L-lysinamide] (H-[dA][d2Nal]AW[dF]K-NH2)
change in LVEDP: Neither of the control and KP-102 groups showed changes in LVPsys and LVEDP | change in LVPsys: Neither of the control and KP-102 groups showed changes in LVPsys and LVEDP | change in double product (RPP), index of myocardial oxygen consumption: Neither group experienced a change in RPP | change in heart rate (HR): Neither of MBP and HR changed | change in mean blood pressure (MBP): Neither of MBP and HR changed | change in −dP/dtmax in comparison with control group: no significant change | increase in stroke volume (SV) from baseline before administration (5 minutes after the administration, n=5, p<0.05 vs control): 5% | maximum increase in cardiac output (CO) from baseline before administration (10 minutes after the administration, n=5, p<0.05 vs control): 7% | increase in +dP/dtmax from baseline before administration (10 minutes after the administration, p<0.05 vs control for first 20 minutes): 7% | maximal increase in ejection fraction (EF) (in 10 minutes, significant vs control): 10% | change in total peripheral resistance (TPR) (p<0.05 vs control): dropped following the administration
